Laboratory results as given in publication PMC13252604, “First Generation Proteolysis Targeting Chimeras (PROTACs) for the Treatment of Progeria” (Advanced Science, 2026).

Experiments:
[1] = test system: Lmna^G609G/G609G fibroblasts; test: Senescence-associated β-galactosidase activity in mouse progeroid cells; type: cell-based; details: 5 µM
Method: Confocal fluorescence microscopy images are representative of 2 independent experiments. […] Representative cropped immunoblots are shown. […] MW, molecular weight (in kDa) markers. (C) PROTAC 2 decreases senescence‐associated β‐galactosidase (SA‐βgal) activity, interleukin (IL) 1α and p16 senescent markers. Lmna^G609G/G609G (G609G) or Lmna^+/+ (WT) fibroblasts were incubated with vehicle or compound 2 (5 µM). […] Data were analysed using one‐way ANOVA followed by Dunnett's post–hoc test. ^*, p < 0.05; ^**, p < 0.01, ^***, p < 0.001, ^****, p < 0.0001 vs G609G cells. […]
TBS-T and proteins were visualized by quimioluminiscence (GE Healthcare […]
SA β-galactosidase activity was determined by the FDG method. […]
ferrocyanide, 0.6 mL 5 M NaCl, 0.2 mL 0.2 M MgCl2, (all from Sigma Aldrich) and 6.2 mL of deionized water in a total volume of 20 mL] in the dark in a humidified incubator at 37 °C for 24 h without CO2 supply. Then, an equal volume of the supernatant of each well was transferred to a new 96-well plate for fluorescence measurement. The resultant production of fluorescein was measured using a FluoStar Optima instrument (BMG Labtech) with an excitation of 485 nm and emission at 535 nm. […]
Total RNA was extracted by RNAeasy Mini Kit (Qiagen) according to the manufacturer instructions and subsequently quantified using the NanoPhotometer N60 (Implen). […]

Stability in human serum = type: in vitro ADME
Text: TABLE 1 Pharmacokinetic parameters of PROTAC 2. | column: Stability (hours) ^b / h‐serum

SMILES: CC1(C)Oc2cc3oc(=O)ccc3cc2C[C@@H]1OC(=O)CCCCCNc1cccc2c1C(=O)N(C1CCC(=O)NC1=O)C2=O (some centres unmarked) [compound 2]
- senescence‐associated β‐galactosidase (SA‐βgal) activity [1]: significantly reduced
- Stability (hours) h‐serum (Stability in human serum): >24 h
